# Source: ChEMBL document CHEMBL1201862, “PubChem BioAssay data set” (2004)
# Activity calls are given as the source filed them.
# Columns and labels:
# Cytochrome P450 3A4 [1] = biological target: T1, Cytochrome P450 3A4 (Homo sapiens, UniProt P08684); conditions: Potency
# [2] = blockers of bursicon-stimulated LGR2 cAMP reporter – cell-based, HEK293, CRE-luciferase reporter, cherry pick, set 2, dose response (AID 743343); type: functional;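 note: transfected cells were stimulated with diluted bursicon conditioned medium after compound addition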
# [3] = blockade of melanocortin 4 receptor signaling – cell-based, plate reader, cherry pick, counter-screen for LGR2 antagonist project, dose response (AID 743444); type: functional;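 note: transfected HEK 293 cells stimulated with alpha-MSH peptide; potency of inhibitors of the alpha-MSH evoked signal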
# Estrogen receptor = biological target: T2, Estrogen receptor (Homo sapiens, UniProt P03372);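 note: potency for inhibiting coactivator peptide recruitment to the receptor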
# T2 sequence (P03372 whole entry): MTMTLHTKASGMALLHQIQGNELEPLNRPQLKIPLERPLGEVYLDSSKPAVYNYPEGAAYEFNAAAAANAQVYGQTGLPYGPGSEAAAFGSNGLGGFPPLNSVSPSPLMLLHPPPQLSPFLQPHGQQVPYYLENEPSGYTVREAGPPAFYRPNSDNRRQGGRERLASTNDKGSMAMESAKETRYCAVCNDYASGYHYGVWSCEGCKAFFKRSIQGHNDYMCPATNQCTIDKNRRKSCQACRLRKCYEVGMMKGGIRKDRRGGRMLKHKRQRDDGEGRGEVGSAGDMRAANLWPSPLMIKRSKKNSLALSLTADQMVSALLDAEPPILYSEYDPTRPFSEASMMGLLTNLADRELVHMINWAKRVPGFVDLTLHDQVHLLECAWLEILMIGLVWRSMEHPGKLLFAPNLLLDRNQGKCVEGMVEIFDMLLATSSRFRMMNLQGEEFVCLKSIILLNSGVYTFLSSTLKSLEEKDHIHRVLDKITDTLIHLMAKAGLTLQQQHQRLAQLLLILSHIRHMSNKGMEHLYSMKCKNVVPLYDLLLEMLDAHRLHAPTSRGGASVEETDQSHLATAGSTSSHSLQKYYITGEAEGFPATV
# Paired box protein Pax-8 = Paired box protein Pax-8 (Homo sapiens, UniProt Q06710); assay: PAX8 transcriptional activity inhibition in RMG-I – RMG-I cells, luciferase, cherry-pick, dose response (AID 687027); type: functional, cell-based;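 note: luciferase reporter driven by Pax8 target thyroperoxidase promoter measured by SteadyGlo luminescence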
# Sequence of Paired box protein Pax-8 (Q06710 whole entry): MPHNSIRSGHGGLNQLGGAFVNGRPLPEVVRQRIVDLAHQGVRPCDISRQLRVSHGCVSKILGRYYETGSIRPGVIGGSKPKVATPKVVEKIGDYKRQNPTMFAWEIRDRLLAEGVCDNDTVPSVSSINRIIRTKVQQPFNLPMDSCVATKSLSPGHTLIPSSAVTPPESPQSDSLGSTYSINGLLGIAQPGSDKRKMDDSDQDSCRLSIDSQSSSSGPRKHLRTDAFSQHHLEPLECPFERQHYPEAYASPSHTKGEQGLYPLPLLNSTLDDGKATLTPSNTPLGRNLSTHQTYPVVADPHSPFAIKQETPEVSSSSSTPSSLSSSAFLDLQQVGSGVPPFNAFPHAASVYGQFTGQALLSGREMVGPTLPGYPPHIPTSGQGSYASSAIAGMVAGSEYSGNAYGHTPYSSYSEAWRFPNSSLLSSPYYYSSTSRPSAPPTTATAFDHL
# [4] = OVCAR8 cell viability loss – plate reader, dry powder samples, PAX8 project, dose response (AID 743197); type: functional, cell-based; conditions: OVCAR-8
# [5] = A cytotoxicity screen of small molecule inhibitors of the PhoP region in Salmonella typhi identified in the primary screen. [Related pubchem assays: 1850, 1864, 1985 ]; type: functional
# Fatty acid synthase [6] = biological target: T3, Fatty acid synthase (Homo sapiens, UniProt P49327); assay: inhibition of human FAS-TE enzyme activity – biochemical, kinetic fluorescence intensity, dose response (AID 624326); type: functional;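 note: rate of fluorescence rise from hydrolysis of a fluorogenic O-methyl fluorescein ester substrate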
# T3 sequence (P49327 whole entry): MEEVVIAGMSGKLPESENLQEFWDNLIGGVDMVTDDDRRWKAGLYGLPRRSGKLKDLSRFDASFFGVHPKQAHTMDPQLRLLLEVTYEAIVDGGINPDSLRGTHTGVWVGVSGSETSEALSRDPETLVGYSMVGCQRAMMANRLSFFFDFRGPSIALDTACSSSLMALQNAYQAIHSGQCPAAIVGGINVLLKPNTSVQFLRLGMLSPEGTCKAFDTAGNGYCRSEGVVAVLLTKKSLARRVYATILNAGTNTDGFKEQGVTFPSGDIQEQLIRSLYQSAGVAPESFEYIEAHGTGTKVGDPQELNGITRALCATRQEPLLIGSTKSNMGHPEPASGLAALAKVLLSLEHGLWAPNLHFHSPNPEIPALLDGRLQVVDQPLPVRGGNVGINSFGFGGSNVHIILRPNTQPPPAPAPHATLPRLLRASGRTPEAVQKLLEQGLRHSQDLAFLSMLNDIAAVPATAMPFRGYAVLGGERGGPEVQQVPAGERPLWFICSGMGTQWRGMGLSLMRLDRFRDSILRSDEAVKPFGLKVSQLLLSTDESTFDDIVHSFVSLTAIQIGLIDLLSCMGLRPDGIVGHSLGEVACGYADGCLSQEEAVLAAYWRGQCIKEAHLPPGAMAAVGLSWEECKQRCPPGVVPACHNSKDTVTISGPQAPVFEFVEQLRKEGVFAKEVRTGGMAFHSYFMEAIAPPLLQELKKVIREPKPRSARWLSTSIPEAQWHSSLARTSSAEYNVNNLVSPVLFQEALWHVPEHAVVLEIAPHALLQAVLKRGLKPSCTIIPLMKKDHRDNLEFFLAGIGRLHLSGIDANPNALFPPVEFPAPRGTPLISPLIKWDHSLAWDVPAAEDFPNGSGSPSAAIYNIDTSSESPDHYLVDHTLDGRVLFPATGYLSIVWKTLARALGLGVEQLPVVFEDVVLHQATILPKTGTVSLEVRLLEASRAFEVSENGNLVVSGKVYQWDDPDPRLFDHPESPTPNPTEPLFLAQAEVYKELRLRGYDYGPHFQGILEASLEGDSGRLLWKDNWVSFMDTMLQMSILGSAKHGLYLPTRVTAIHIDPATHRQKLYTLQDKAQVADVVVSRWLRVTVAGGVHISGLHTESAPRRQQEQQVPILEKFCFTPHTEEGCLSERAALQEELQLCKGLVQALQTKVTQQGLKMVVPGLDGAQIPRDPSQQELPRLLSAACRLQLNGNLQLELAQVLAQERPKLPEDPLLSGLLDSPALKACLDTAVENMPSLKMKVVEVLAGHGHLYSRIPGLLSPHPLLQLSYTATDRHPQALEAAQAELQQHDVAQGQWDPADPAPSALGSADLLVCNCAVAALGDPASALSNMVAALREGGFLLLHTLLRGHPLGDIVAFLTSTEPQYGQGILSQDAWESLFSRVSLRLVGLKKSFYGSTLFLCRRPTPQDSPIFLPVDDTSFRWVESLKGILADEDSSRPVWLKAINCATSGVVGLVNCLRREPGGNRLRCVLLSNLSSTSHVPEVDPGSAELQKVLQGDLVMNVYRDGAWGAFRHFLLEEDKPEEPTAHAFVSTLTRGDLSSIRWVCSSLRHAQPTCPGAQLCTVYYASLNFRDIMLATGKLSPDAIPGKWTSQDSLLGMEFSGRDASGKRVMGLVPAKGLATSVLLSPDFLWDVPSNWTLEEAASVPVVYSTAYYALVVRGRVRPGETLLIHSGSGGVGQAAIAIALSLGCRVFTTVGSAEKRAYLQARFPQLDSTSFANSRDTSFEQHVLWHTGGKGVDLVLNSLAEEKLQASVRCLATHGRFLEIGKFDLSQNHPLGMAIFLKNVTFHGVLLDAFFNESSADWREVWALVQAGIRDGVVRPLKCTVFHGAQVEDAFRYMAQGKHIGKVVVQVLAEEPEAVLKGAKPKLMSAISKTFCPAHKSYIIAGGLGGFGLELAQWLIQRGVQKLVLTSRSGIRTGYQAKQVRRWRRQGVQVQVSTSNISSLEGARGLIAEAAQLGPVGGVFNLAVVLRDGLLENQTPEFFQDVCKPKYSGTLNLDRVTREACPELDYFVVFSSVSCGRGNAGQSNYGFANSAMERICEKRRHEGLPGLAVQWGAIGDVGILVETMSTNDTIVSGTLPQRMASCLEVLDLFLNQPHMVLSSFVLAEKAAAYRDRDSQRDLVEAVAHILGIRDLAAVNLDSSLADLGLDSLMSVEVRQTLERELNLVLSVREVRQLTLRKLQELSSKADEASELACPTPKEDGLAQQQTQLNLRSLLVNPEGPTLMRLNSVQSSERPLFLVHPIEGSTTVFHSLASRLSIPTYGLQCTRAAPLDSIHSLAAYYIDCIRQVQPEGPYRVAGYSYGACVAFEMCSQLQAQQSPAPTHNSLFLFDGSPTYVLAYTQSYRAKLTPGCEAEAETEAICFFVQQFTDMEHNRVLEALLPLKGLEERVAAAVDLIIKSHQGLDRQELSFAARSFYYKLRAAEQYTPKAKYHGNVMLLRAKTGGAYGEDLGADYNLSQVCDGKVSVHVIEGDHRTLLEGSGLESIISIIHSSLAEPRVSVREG
# Fatty acid synthase [7] = biological target: T3, Fatty acid synthase; assay: inhibition of human FAS-TE enzyme activity – biochemical, endpoint fluorescence intensity, uHTS hits, dose response (AID 624327); type: functional;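 note: fluorescence from hydrolysis of an O-methyl fluorescein acyl ester substrate by the enzyme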
# Nonstructural protein 1 = Nonstructural protein 1 (Influenza A virus, UniProt Q194T2); type: functional, Influenza A virus (A/California/07/2009(H1N1))
# Sequence of Nonstructural protein 1 (Q194T2 whole entry): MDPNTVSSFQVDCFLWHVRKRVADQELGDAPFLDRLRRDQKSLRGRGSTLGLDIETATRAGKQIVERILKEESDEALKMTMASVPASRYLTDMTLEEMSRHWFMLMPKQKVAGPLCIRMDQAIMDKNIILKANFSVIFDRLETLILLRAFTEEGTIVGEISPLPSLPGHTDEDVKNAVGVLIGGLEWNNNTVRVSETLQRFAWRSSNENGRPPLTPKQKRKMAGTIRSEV
# [8] = viability loss in THP-1 monocytes – THP-1 cells, cytotoxicity control for Vif-APOBEC3G degradation inhibitor project, dose response (AID 1117359); type: functional; conditions: THP-1
# cells [9] = type: functional, cell-based
# cells [10] = type: functional, cell-based; remark: listed apart in the source
# [11] = blockers of HIV-1 envelope-mediated cell-cell fusion – cherry-pick, dose response (AID 652057); type: functional, cell-based
# [12] = off-target signal loss in HeLa-CEM21 co-culture – HeLa F-luc CTL cells, cherry-picked, counter-screen for HIV-1 Env fusion inhibitor project, dose response (AID 652040); type: functional, cell-based;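 note: potency for signal decrease marking cytotoxic or nonspecific inhibition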
# [13] = HIV-1 AD8 envelope cell-cell fusion blockers – cherry-pick, dose response (AID 652062); type: functional, cell-based;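 note: luciferase signal from cell-cell fusion driven by HIV-1 clade B AD8 Env; potency is for inhibitors of fusion seen as a drop in luminescence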
# [14] = blockers of HIV-1 ZM109 envelope-driven cell-cell fusion – HeLa effector, CEM target cells, luciferase, cherry-pick, dose response (AID 652058); type: functional, cell-based;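 note: luciferase signal from HIV-1 Env mediated cell-cell fusion of effector and target cells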
# Cytochrome P450 2C19 = Cytochrome P450 2C19 (Homo sapiens, UniProt P33261); assay: Cytochrome panel assay with activity outcomes. Panel member name: p450-cyp2c19 Compounds with AC50 equal or less than 10 uM are considered active; type: functional; conditions: read-out: AC50
# Sequence of Cytochrome P450 2C19 (P33261 whole entry): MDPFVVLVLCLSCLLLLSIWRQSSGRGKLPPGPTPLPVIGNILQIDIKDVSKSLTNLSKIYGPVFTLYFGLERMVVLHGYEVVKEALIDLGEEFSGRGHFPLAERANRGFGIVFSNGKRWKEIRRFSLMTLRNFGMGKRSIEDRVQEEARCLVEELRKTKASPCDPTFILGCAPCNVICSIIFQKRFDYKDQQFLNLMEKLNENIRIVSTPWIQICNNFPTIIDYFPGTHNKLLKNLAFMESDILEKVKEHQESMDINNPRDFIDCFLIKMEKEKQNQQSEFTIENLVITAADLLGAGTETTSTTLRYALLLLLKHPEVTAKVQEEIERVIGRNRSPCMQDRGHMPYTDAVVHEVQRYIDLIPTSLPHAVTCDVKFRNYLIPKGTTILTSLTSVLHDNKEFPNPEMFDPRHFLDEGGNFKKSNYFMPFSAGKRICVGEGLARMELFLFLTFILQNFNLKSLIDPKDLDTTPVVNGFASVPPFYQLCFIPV
# Cytochrome P450 2C9 = Cytochrome P450 2C9 (Homo sapiens, UniProt P11712)
# Sequence of Cytochrome P450 2C9 (P11712 whole entry): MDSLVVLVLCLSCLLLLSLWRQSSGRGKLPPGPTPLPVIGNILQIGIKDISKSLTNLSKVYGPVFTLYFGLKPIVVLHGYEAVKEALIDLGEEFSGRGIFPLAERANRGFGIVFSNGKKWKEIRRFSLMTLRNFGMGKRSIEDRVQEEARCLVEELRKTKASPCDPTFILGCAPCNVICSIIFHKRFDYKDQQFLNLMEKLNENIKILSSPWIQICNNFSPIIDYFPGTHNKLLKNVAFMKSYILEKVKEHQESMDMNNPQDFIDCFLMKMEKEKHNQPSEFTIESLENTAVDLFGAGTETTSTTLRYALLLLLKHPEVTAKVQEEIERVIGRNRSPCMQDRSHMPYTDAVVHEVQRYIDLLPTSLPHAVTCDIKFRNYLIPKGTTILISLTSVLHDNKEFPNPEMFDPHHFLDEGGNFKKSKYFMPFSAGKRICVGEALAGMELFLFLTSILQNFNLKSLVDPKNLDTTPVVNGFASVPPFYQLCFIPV
# [15] = biological target: Induced myeloid leukemia cell differentiation protein Mcl-1 (Homo sapiens, UniProt Q07820); type: functional
# Sequence of Induced myeloid leukemia cell differentiation protein Mcl-1 (Q07820 whole entry): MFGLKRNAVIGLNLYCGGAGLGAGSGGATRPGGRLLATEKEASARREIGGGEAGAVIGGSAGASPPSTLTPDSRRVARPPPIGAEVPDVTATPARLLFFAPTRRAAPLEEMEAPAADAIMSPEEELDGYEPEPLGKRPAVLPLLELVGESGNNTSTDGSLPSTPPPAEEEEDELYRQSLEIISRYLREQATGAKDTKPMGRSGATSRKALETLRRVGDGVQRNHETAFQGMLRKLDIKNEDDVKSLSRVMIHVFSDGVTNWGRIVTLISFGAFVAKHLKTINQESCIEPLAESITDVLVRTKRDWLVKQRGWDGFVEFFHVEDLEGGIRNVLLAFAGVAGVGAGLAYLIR
# [16] = viability of HCT116 lacking mutant beta-catenin – cell-based, human colon tumor, dose response (AID 1045); type: functional;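 note: HCT116 colon tumor cells with beta catenin knocked out; cells exposed to compound for 60 hours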
# [17] = biological target: T4, Carboxy-terminal domain RNA polymerase II polypeptide A small phosphatase 1 (Homo sapiens, UniProt Q9GZU7); assay: CTDSP1 inhibitors, concentration-response, biochemical, absorbance readout, ultra-high-throughput screen actives (AID 540297); type: functional
# T4 sequence (Q9GZU7 whole entry): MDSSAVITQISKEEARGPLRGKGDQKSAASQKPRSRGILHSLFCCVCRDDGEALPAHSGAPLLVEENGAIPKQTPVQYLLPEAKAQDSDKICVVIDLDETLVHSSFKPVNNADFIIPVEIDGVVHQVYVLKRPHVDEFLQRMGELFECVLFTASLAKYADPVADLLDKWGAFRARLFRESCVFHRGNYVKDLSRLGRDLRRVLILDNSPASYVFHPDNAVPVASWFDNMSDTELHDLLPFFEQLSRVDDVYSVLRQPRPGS
# [18] = toxicity to human HepG2 hepatoma cells – cell-based, plate reader, dry powder samples, cytotoxicity control, dose response (AID 1159569); type: functional;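 note: inhibitor potency with signal falling toward the positive control level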
# [19] = growth inhibition of yeast DHODH-expressing 3D7 parasites – SYBR Green, dry powder samples, dose response (AID 1159570); type: functional, cell-based;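 note: parasite growth measured after 72 hours of compound exposure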
# [20] = Dd2 malaria parasite growth inhibition potency – SYBR Green, dry powder samples, dose response (AID 1159566); type: functional, cell-based;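 note: potency for growth inhibition with lower SYBR green DNA signal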
# [21] = growth inhibition of PfATP4-mutant resistant parasites – NITD609-resistant line, SYBR Green, dry powder, dose response (AID 1159571); type: functional, cell-based;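 note: parasites synchronized at ring stage by sorbitol before testing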
# [22] = P. falciparum Dd2 growth inhibitors, dose response, SYBR Green, cherry-picked samples (AID 1159567); type: functional, cell-based
# Cytochrome P450 1A2 = biological target: T5, Cytochrome P450 1A2 (Homo sapiens, UniProt P05177);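 note: PubChem cytochrome P450 panel assay, CYP1A2 panel member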
# T5 sequence (P05177 whole entry): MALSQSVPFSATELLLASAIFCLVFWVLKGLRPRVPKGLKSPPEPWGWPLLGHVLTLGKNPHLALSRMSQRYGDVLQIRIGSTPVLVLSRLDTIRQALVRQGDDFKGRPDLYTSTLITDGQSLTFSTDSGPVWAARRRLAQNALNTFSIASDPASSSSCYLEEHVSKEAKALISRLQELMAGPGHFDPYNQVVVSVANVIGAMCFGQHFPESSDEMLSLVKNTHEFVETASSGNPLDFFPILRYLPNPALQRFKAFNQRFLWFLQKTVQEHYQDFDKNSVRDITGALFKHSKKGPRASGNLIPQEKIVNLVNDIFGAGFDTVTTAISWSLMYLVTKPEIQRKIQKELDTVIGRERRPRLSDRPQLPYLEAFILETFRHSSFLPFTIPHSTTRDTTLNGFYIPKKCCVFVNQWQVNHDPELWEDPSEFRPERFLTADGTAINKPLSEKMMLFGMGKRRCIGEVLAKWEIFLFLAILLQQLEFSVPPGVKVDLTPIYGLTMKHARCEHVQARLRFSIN
# Cytochrome P450 3A4 [23] = biological target: T1, Cytochrome P450 3A4
# T1 sequence (P08684 whole entry): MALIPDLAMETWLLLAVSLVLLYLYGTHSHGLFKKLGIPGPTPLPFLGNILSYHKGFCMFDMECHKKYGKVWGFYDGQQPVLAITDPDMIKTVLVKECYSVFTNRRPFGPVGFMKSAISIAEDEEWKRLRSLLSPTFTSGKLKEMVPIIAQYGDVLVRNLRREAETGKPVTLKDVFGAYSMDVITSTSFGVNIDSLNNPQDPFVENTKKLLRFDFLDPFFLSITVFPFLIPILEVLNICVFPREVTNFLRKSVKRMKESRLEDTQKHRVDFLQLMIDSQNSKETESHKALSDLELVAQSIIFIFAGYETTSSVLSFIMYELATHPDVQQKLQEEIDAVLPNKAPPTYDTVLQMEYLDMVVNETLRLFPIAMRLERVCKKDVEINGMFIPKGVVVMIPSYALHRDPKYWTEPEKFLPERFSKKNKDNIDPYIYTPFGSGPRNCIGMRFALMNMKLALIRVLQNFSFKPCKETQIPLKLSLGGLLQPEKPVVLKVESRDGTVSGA
smiles,measurement,setting,value
CC1(C)CC2C1CCC1(C)OC1CCC2(C)O (stereo not drawn) [2-HYDROXY-5 (6)EPOXY-TETRAHYDROCARYOPHYLLENE],AC50,Cytochrome P450 3A4 [1],25.1 µM (inconclusive)
O=C(O)c1ccc(-c2noc(-c3ccccc3Cl)n2)cc1,AC50,[2],28.3 µM (active)
same,AC50,[3],32.9 µM (active)
O=C(CCC(=O)c1cccs1)Nc1nnc(C2CC2)s1,IC50,Estrogen receptor,> 50 µM (not active)
C[C@H]1CCCCO[C@H](CN(C)C(=O)Nc2ccc(F)cc2)[C@@H](C)CN([C@@H](C)CO)C(=O)c2cc(NC(=O)Nc3ccc(C(F)(F)F)cc3)ccc2O1,AC50,Paired box protein Pax-8,8.09 µM (active)
same,AC50,[4],58.3 µM (active)
Clc1cccc(CN2C3=NCCCN3c3ccccc32)c1,EC50,[5],> 50 µM (active)
Cn1c(CN2CCCC2)nc2cc(NC(=O)COc3ccc(Cl)cc3)ccc21,EC50,[5],> 50 µM (active)
O=C(Nc1ccc2oc(-c3ccccc3F)nc2c1)c1cncc(Br)c1,IC50,Estrogen receptor,15.5 µM (active)
CC(C)CC#Cc1ccc2c(c1)O[C@H](CN(C)Cc1ccc(F)cc1)[C@H](C)CN([C@H](C)CO)S2(=O)=O,AC50,Paired box protein Pax-8,23.1 µM (active)
same,AC50,[4],61.2 µM (active)
Cn1c(=O)c2nc(COc3ccc(C(C)(C)C)cc3)[nH]c2n(C)c1=O,IC50,Fatty acid synthase [6],6.26 µM (active)
same,IC50,Fatty acid synthase [7],4.28 µM (active)
Cc1cc(NS(=O)(=O)c2ccc(NC(=O)C(C)Oc3ccc4c(C)cc(=O)oc4c3)cc2)no1 (stereo not drawn),EC50,[5],> 50 µM (active)
O=C(CC(=O)NCc1ccccc1)NCc1ccccc1,EC50,[5],> 50 µM (active)
Cc1cc(C(=O)N/N=C/c2cc([N+](=O)[O-])ccc2O)c2ccccc2n1,IC50,Nonstructural protein 1,5.29 µM (active)
same,IC50,Fatty acid synthase [6],2.75 µM (active)
same,IC50,Fatty acid synthase [7],3.18 µM (active)
CCC(C)NC(=O)CSc1ccc(S(=O)(=O)N2CCN(Cc3ccccc3)CC2)cn1 (stereo not drawn),CC50,[8],> 40 µM (active)
Cn1nc(C(=O)NCCCN2CCCCC2)c2c1-c1ccccc1S(=O)(=O)C2,EC50,cells [9],> 350 µM (not active)
same,EC50,cells [10],> 350 µM (not active)
CCO/C(O)=C/c1nc2ccccc2sc1=O,AC50,[11],5.7 µM (active)
same,AC50,[12],5.57 µM (active)
same,AC50,[13],3 µM (active)
same,AC50,[14],5060 nM (active)
O=C(Nc1cccn2ncnc12)c1ccc(Cl)cc1Cl,AC50,Cytochrome P450 2C19,11.2 µM (inconclusive)
same,AC50,Cytochrome P450 2C9,inconclusive
CCOC(=O)C1=CC[C@H]2c3c(c4ccccc4n3C)C(=O)C1N2C(=O)OC(C)(C)C,IC50,Fatty acid synthase [6],11.9 µM (active)
same,IC50,Fatty acid synthase [7],10.8 µM (active)
C=C[C@H]1CN2CC[C@H]1C[C@H]2c1[nH]c2ccccc2c1CCO [CINCHONAMINE],AC50,Cytochrome P450 3A4 [1],31.6 µM (inconclusive)
CC[C@@]1(C(=O)OC)N[C@H](CN(C)C(=O)Nc2ccc(F)cc2)[C@@H]2C(=O)N(Cc3ccccc3)C(=O)[C@@H]21,AC50,[11],0.401 µM (active)
same,AC50,[12],0.744 µM (active)
same,AC50,[13],0.614 µM (active)
same,AC50,[14],378 nM (active)
CCN(CC)c1ccc(NC2=C(Cl)C(=O)c3ccccc3C2=O)cc1,CC50,[8],4.24 µM (active)
same,IC50,[15],1.47 µM (active)
same,EC50,[16],1 µM (active)
COc1ccc2cc(C(=O)Nc3ccc(F)cc3)sc(=O)c2c1OC,IC50,[17],6.77 µM (active)
same,AC50,Cytochrome P450 2C9,inconclusive
CCN(CC)S(=O)(=O)c1ccc(/C=C/C(=O)Nc2ccc(N3CCOCC3)cc2)cc1,CC50,[8],> 40 µM (active)
COc1ccc(-c2cc([N+](=O)[O-])ccc2OCC(=O)N(C)CC(=O)Nc2ccc(C)cc2)cc1,IC50,Fatty acid synthase [6],7.78 µM (active)
same,IC50,Fatty acid synthase [7],7.56 µM (active)
C=CCN(c1ccccc1)S(=O)(=O)c1cccc(C(=O)Nc2ncccc2O)c1,EC50,cells [9],> 350 µM (not active)
same,EC50,cells [10],> 350 µM (not active)
C[C@H]1CN([C@@H](C)CO)C(=O)c2c(c3ccccc3n2C)-c2ccccc2CO[C@H]1CN(C)S(=O)(=O)c1ccc(C(F)(F)F)cc1,AC50,Paired box protein Pax-8,3.69 µM (active)
same,AC50,[18],32.1 µM (active)
same,AC50,[19],251 nM (active)
same,AC50,[20],230 nM (active)
same,AC50,[21],216 nM (active)
same,AC50,[4],50.8 µM (active)
same,AC50,[22],< 300 nM (active)
CCCn1c(C)nc2c(Nc3ccccc3)nc(C)nc21,AC50,Cytochrome P450 3A4 [1],31.6 µM (inconclusive)
Nc1nnc(CC(=O)N/N=C/c2cccc([N+](=O)[O-])c2)s1,AC50,Cytochrome P450 1A2,31.6 µM (inconclusive)
same,AC50,Cytochrome P450 2C9,inconclusive
CCCCN1CC(=O)N2[C@H]3c4ccccc4OC[C@@H]3[C@H](c3ccccc3)[C@]2(C)C1=O,AC50,[11],3.64 µM (active)
same,AC50,[12],4.48 µM (active)
same,AC50,[13],29.7 µM (active)
same,AC50,[14],448 nM (active)
CNC(=O)/C(=C\C=C\c1ccccc1)NC(=O)c1ccc([N+](=O)[O-])cc1,IC50,Fatty acid synthase [6],0.809 µM (active)
same,IC50,Fatty acid synthase [7],0.786 µM (active)
C=CCC1(C)OC=Cc2nc3cc(Cl)c(Cl)cc3nc21 (stereo not drawn),AC50,Cytochrome P450 3A4 [1],3.98 µM (inconclusive)
O=C(CCCCCN1C(=O)c2ccccc2C1=O)Nc1ccc2c(c1)OCCO2,EC50,cells [9],> 350 µM (not active)
same,EC50,cells [10],> 350 µM (not active)
Cc1cc(C)cc(NC(=O)c2cccc(NC(=O)c3ccco3)c2)c1,EC50,cells [9],34.9 µM (active)
same,EC50,cells [10],> 350 µM (not active)
Oc1ccc(Cn2cc[nH]c2=S)cc1,AC50,Cytochrome P450 1A2,6.31 µM (inconclusive)
same,AC50,Cytochrome P450 3A4 [23],15.8 µM (inconclusive)
same,AC50,Cytochrome P450 2C9,inconclusive
